# Data taken from patent publication EP0598515A1, “Method for herbicidal activity-enhancing, activity-enhanced herbicidal composition and activity-enhancing composition” (ISHIHARA SANGYO KAISHA LTD., priority 1992, dated 1994).
# Where two headings read alike, the source gives them in different places.
# Tests used:
# [1] = system: Common lambsquarters (Chenopodium album L.); assay: Test Example 8: pot test, Example 8 suspension concentrate with Frigate; type: in vivo; details: 408 h, 17 days after treatment, duplicate, read-out: Growth Inhibition (%) of Common Lambsquarters; for inhibition at 5 g/ha: Compound A 5 g/ha; for inhibition at 10 g/ha: Compound A 10 g/ha; for inhibition at 20 g/ha: Compound A 20 g/ha; for inhibition at 40 g/ha: Compound A 40 g/ha
# Procedure: Common lambsquarters (Chenopodium album L.) seeds were sown in 1/1,000,000-hectare pots filled with upland soil and arranged in a duplicate system. When the common lambsquarters plants grew to a 8- to 9-leaf stage, the oil-based suspension concentrate obtained in Example 8 was diluted with 500 liters/hectare of water containing a predetermined amount of Frigate and was applied foliarly to the plants with a small spray gun.
# Seventeen days after treatment, the growth inhibition of plants was evaluated with visual observation in the same manner as in Test Example 1 and are shown in Table 8.
# total evaluation = assay: Test Example 13: field plot test, total evaluation of growth inhibition; type: in vivo; details: Example 8 suspension concentrate, 27 days after treatment, field plots; for inhibition at 40 g/ha: Compound A 40 g/ha
# Source text: In field plots of 4 m² (1 m × 4 m) unit arranged in a duplicate system, seeds of corn, crabgrass (Digitaria sanguinalis L.) common lambsquarters (Chenopodium album L.), slender amaranth (Amaranthus viridis L.), velvetleaf (Abutilon theophrasti MEDIC.) and common cocklebur (Xanthium strumarium L.) were sown and grown. Also, green foxtail (Setaria viridis L.) and barnyardgrass (Echinochloa crus-galli L.) were allowed to grow spontaneously. When the plants grew to certain stages (corn: 4.2 to 6.0-leaf stage, crabgrass: 3.2 to 5.0-leaf stage, common lambsquarters: 3.0 to 6.0-leaf stage, slender amaranth: 2.0 to 5.0-leaf stage, velvetleaf: 1.5 to 4.0-leaf stage, common cocklebur: cotyledonal to 3.5-leaf stage, green foxtail: 3.0 to 5.0-leaf stage and barnyardgrass: 3.0 to 5.0-leaf stage), the oil-based suspension concentrate obtained in Example 8 was diluted with 200 liters/hectare of water containing a predetermined amount of Frigate and was applied foliarly to the plants with a small spray gun.
# Twenty seven days after treatment, the growth inhibition of plants except for corn plants was evaluated with visual observation in the same manner as in Test Example 1 and are shown in Table 13.
smiles,measurement,setting,value
"COc1cc(OC)nc(NC(=O)NS(=O)(=O)c2ncccc2C(=O)N(C)C)n1 [Compound A, N-[(4,6-dimethoxypyrimidin-2-yl)aminocarbonyl]-3-dimethylaminocarbonyl-2-pyridinesulfonamide]",inhibition at 5 g/ha,[1]; Frigate 0.25 % by volume,50%
same,inhibition at 10 g/ha,[1]; Frigate 0.25 % by volume,60%
same,inhibition at 20 g/ha,[1]; Frigate 0.25 % by volume,80%
same,inhibition at 40 g/ha,[1]; Frigate 0.25 % by volume,90%
same,inhibition at 5 g/ha,[1]; Frigate 0.5 % by volume,55%
same,inhibition at 10 g/ha,[1]; Frigate 0.5 % by volume,70%
same,inhibition at 20 g/ha,[1]; Frigate 0.5 % by volume,85%
same,inhibition at 40 g/ha,[1]; Frigate 0.5 % by volume,90%
same,inhibition at 5 g/ha,[1]; Frigate: No addition,0%
same,inhibition at 10 g/ha,[1]; Frigate: No addition,0%
same,inhibition at 20 g/ha,[1]; Frigate: No addition,50%
same,inhibition at 40 g/ha,[1]; Frigate: No addition,80%
same,inhibition at 30 g/ha,"total evaluation; 648 h, Frigate 0.1 % by volume, Compound A 30 g/ha, read-out: Growth Inhibition (%) TE",75%
same,inhibition at 40 g/ha,"total evaluation; 648 h, Frigate 0.1 % by volume, read-out: Growth Inhibition (%) TE",90%
same,inhibition at 20 g/ha,"total evaluation; 648 h, Frigate 0.2 % by volume, Compound A 20 g/ha, read-out: Growth Inhibition (%) TE",65%
same,inhibition at 30 g/ha,"total evaluation; 648 h, Frigate 0.2 % by volume, Compound A 30 g/ha, read-out: Growth Inhibition (%) TE",80%
same,inhibition at 40 g/ha,"total evaluation; 648 h, Frigate 0.2 % by volume, read-out: Growth Inhibition (%) TE",85%
same,inhibition at 30 g/ha,"total evaluation; 648 h, Frigate: No addition, Compound A 30 g/ha, read-out: Growth Inhibition (%) TE",50%
same,inhibition at 40 g/ha,"total evaluation; 648 h, Frigate: No addition, read-out: Growth Inhibition (%) TE",70%
same,inhibition at 50 g/ha,"total evaluation; 648 h, Frigate: No addition, Compound A 50 g/ha, read-out: Growth Inhibition (%) TE",75%
same,Growth Inhibition (%) TE,"total evaluation; Frigate: No addition, Compound A 30 g/ha",60%
